This series can be described thus: Aggregate analysis by widefield fluorescence microscopy. Type of series: physicochemical. Conditions: for Number of Aggregates / Aggregate Number: ThT-stained aggregates > 10 µm2 in 1330 µm × 1330 µm, 1 mg/mL 1 d, diluted to 0.1 mg/mL with 50 µM ThT, 3D object counter ImageJ, triplicate. On the procedure:
4 µL of 1 mg/mL peptide fibrils solution is added to a 20 µL, 50 µM ThT–solution in PBS. The mixture is incubated for 15 min at RT to allow binding of ThT dye with β–sheet rich structures. For reference PBS (4 µL) was added instead of peptide fibril solution. The samples were placed in black UV Star® 384 microliter well–plates (Greiner bio–one). Fluorescence spectra were recorded on an Infinite® M1000 PRO microplate reader (Tecan) at λem = 488 nm upon excitation at λex = 440 nm with 10 nm bandwidths and multiple reads per well (3×3). Measurements were repeated in triplicates and averaged with standard deviation. A peptide fibril was considered as ThT-active if the fluorescence intensity was at least twice as strong compared to the control (PBS containing 10% DMSO). Zeta-Potential. For the determination of the surface charge of aggregated peptides zeta-potential measurements were conducted with a Zetasizer Nano ZS, Malvern Instruments. Unless stated otherwise the peptides were dissolved from DMSO (10 mg/mL) in PBS (pH 7.4) to concentration of 1 mg/mL and incubated for 1d at RT. Just before the measurement the 60 µL of the peptides were further diluted in 600 µL KCl (aq, 1 mM) in a 1 mL disposable folded capillary cells (DTS–1060, Zetasizer Nano series, Malvern). The zeta potential of the peptides was derived from the electrophoretic mobility based on the Smoluchowski formula. All measurements were averaged over two individually performed experiments and conducted in triplicates for each sample. Aggregate analysis. […] Furthermore, fluorescence microscopy was conducted by staining 1 µL preformed fibrils (1 mg/mL) with 9 µL ThT (50 µM). Brightfield microscopy was performed simultaneously to evaluate aggregation also for non ThT-active fibrils. The measurements were performed on a Leica DMi8 microscope with 10x air objective and equipped with a Leica MC170 HD camera with a filter setting λem = 527/30 nm upon excitation at λex = 480/40 nm) and processed with the Leica LASX software. To quantify size and number of microscopic aggregation of particles > 10 µm^2 at least 3 independently measured images were analyzed via the 3D object counter analysis tool of ImageJ, v 1.53f51. Sum–frequency generation. The SFG experiments were carried out with a femtosecond Ti: Sapphire amplified laser system (Spitfire Ace, Spectra–Physics, 800 nm, 40 fs, 1 kHz) with 5 W output power. We used 2 W to pump an optical parametric amplifier (TOPAS, light conversion) with a non–collinear difference frequency generation stage to generate broadband IR pulses. Another 1 W of the laser output passed through an etalon to generate narrowband visible pulses (10 cm^-1). The incident angles of the visible and IR beams were 36° and 41° with respect to the surface normal, respectively. The visible (13 µJ) and IR (5 µJ) pulses were overlapped spatially and temporally at the sample position. Subsequently, the generated SFG pulse was guided into a spectrograph (Acton SP 300i, Princeton Instruments), and detected with an EMCCD (Newton, Andor Technology). To avoid IR absorption of water vapor, we purged N2 for the measurement. All spectra were collected in the ssp (denoting s-, s- and p-polarized SFG, visible and IR, respectively) polarization combination. The spectra were normalized to the non–resonant signal taken from z–cut quartz after subtracting a background spectrum.
Table S8 Summary of aggregate analysis from widefield microscopy measurements (Figure S32). The Number of aggregated peptides, the median size area, average size area
and the cumulative total size area of all particles (> 10 µm2) in an area of 1330 µm × 1330 µm was determined via automated 3D object counting (ImageJ) in triplicate
measurements (Std. Dev.).
Aggregate Std. Dev. Std. Dev. Std. Dev. Std. Dev.
Sequence Abs. Inf. / Std. Dev. / Count Rate / Std. Dev. Number Aggregate Median Area Median Area Average Area Average Area Total Area/ Total Area/ […]

In the case of CHLHLQL, the “Number of Aggregates / Aggregate Number” value came out at 36.
In the case of CKFKFQF, the “Number of Aggregates / Aggregate Number” value was determined as 128. Also, under “logarithm of averaged number of aggregates in 1330 µm × 1330 µm”, the “Log10 Number Aggregates” value was found to be 2.108.
Regarding CKFKFQFNM, the “Number of Aggregates / Aggregate Number” value was 170.
Same read-out and setting: to CKWKWQW belongs 87; to HIHIQIC, 33; to KFKFQFNMWQ, 64.
KIKQIIN: the “Number of Aggregates / Aggregate Number” value is 12.
Still for that read-out and setting: next, KIKQIINMWQ: 39.
Turning to KWKWQW, the “Number of Aggregates / Aggregate Number” value is reported as 28.
On the same count and under the same terms, next, QCKIKIQINMWQ: 398.
For QCKIKQIINMWQ [reference compound], the “Number of Aggregates / Aggregate Number” value is reported as 408. In addition, where the note is “Fig S8 panels A, C”, the “Avg Area in 3 *(1330 µm *1330 µm)” value is reported as 71.85, the “Log 10 Number of aggregates in 3 * (1330 µm *1330 µm)” value was determined as 2.611, the “Median Area in 3 * (1330 µm *1330 µm)” value was determined as 27.89 and the “log Avg Area in 3 * ( (1330 µm *1330 µm))” value is listed as 1.856. Moreover, for the setting “Fig S8 panels A, C”, the “log Median Area in 3 * ( (1330 µm *1330 µm))” value is listed as 1.445 and the “log Total Area of all particles in 3 * (1330 µm *1330 µm)” value was determined as 4.467. The “Number of aggregates in 3 * (1330 µm *1330 µm)” value (Fig S8 panels A, C, 3 fields of 1330 µm x 1330 µm) is listed as 408. Where the note is “Fig S8 panels B, D, average aggregate area, 3 fields of 1330 µm x 1330 µm”, the “Avg Area in 3 *(1330 µm *1330 µm)” value stood at 71.85. Moreover, the “Median Area in 3 * (1330 µm *1330 µm)” value (Fig S8 panels B, D, median aggregate area, 3 fields of 1330 µm x 1330 µm) was found to be 27.89. For the same substance, where the note is “Fig S8 panels B, D, total area of all particles, 3 fields of 1330 µm x 1330 µm”, the “Total Area of all particles in 3 * (1330 µm *1330 µm)” value came out at 29314.25467. Besides, the “Number of aggregates in 3 * (1330 µm *1330 µm)” value (Fig S8 panels B, D, widefield fluorescence microscopy, 3 fields of 1330 µm x 1330 µm) amounted to 408.

Values taken from PMC10447463, “Data-mining unveils structure–property–activity correlation of viral infectivity enhancing self-assembling peptides” (Nature Communications, 2023).
